Data as given in patent US20240376165A1, “COMPOSITION COMPRISING VGLL1 PEPTIDE FOR TREATMENT OF CANCER” (ONECUREGEN CO., LTD., priority 2020, published 2024).

Legend:
[1] = test system: MMP9; experiment: MMP9 protein expression induced by TGF-β, western blot, peptide treatment; type: cell-based, human; details: NUGC3, TGF-β and peptide for 18 hours, FIG. 8
Description: To evaluate whether the peptide fragment that interferes the binding between VGLL1 and TEAD4 can inhibit MMP9 expression in human stomach cancer cells, peptides shown in Table 6 were prepared to examine their effects on MMP9 expression.
Experiments were performed using the synthetic peptide fragments. The stomach cancer NUGC3 cells were cultured in a 6-well plate. The next day, cells were cultured in serum-free cell culture for 24 hours. TGF-β and a control peptide fragment (SEQ ID NO: 12), a peptide fragment containing serine at position 84 of VGLL1 (SEQ ID NO: 27), and a mutant peptide fragment containing alanine at position 84 of VGLL1 (SEQ ID NO: 28) were treated into cells for 18 hours. Proteins were extracted from the cells using a Ripa buffer and were separated by electrophoresis. Thereafter, protein expression of genes was confirmed by using an antibody on the polyvinylidene fluoride membrane.

[2] = test system: stomach cancer cells; experiment: Proliferation of various cancer cells: stomach cancer; type: cell-based; details: 60 μM peptide; NUGC3, AG5, NCI-N87, SNU484, MKN1; FIG. 12
Description: (§1) In order to confirm the various cancer cell proliferation inhibitory effects of the variant of S84 VGLL1 peptide fragment, the VGLL1 S84 peptide sequence represented by SEQ ID NO: 27 was treated into various cancer cell lines.
(§2) Specifically, the cancer cells of Table 8 were cultured in a 96-well plate and treated with 60 μM peptide on the next day, and cell proliferation was analyzed using a real-time cell analysis system (product name: IncuCyte Zoom).

[3] = test system: stomach cancer cell line NUGC3; experiment: Cancer cell proliferation, real-time cell analysis (IncuCyte Zoom); type: cell-based, human; details: FIG. 9
Description: Specifically, the stomach cancer cell line NUGC3 was cultured in a 96-well plate. The next day, the cells were treated with the peptide fragment. The cell proliferation was analyzed using a real-time cell analysis system (product name: IncuCyte Zoom).

[4] = test system: cervical cancer cells; experiment: Proliferation of various cancer cells: cervical cancer; type: cell-based; details: 60 μM peptide; Hela; FIG. 12
Description: as §1, §2

[5] = test system: liver cancer cells; experiment: Proliferation of various cancer cells: liver cancer; type: cell-based; details: 60 μM peptide; HepG2, SNU354; FIG. 12
Description: as §1, §2

[6] = test system: stomach cancer cell line NUGC3; experiment: Cancer cell proliferation with peptide variants, real-time cell analysis (Incucyte); type: cell-based, human; details: NUGC3, 60 μM peptide, FIG. 11
Description: The stomach cancer cell line NUGC3 was cultured in a 96-well plate, and the next day, the cells were treated with 60 μM peptide. The cell proliferation was analyzed using a real-time cell analysis system (product name: Incucyte).
FIG. 11A is a graph of real-time cell proliferation, and FIG. 11B is a graph showing cell proliferation after 4 days based on 100% control peptide.

[7] = test system: breast cancer cells; experiment: Proliferation of various cancer cells: breast cancer; type: cell-based; details: 60 μM peptide; MCF7, SKBR3; FIG. 12
Description: as §1, §2

[8] = test system: stomach cancer cell line NUGC3; experiment: Cancer cell invasion with peptide fragment; type: cell-based, human; details: NUGC3, insert, 48 hours, FIG. 10
Description: Next, in order to confirm the cell invasive ability of MMP9, a cell culture insert was fixed in a 24-well plate. Matrigel was diluted 20-fold, and 100 μl of diluent was added. The reaction was carried out at 37° C. for 1 hour or longer. 700 μl of medium containing 10% serum was added to a 24-well plate under the insert. MMP knockdown cells with the above siRNA were added to the insert according to 300 μl of serum-free medium to a concentration of 5×10^5. After 48 hours, the insert was removed and cells were fixed in 10% formalin solution. Cells remaining inside the insert were removed with a cotton swab and washed with water. Cells were stained with 0.4% Sulforhodamine B solution for 1 hour, washed with acetic acid, and dried. Then, a photograph was taken with an optical microscope, the membrane on the insert was cut, and Sulforhodamine B in stained cells was dissolved in 10 mM Tris solution, and absorbance was measured at 540 nm using an ELISA plate reader (FIG. 2C).
A method similar to Example 1-2 was performed for stomach cancer cell invasion experiment by the VGLL1 peptide fragment.
The stomach cancer cell line NUGC3 was placed in an insert together with the peptide fragment. After 48 hours of cell culture, the insert was fixed in a 10% formalin solution, and the downwardly migrated cells were confirmed by staining with 0.4% Sulforhodamine B solution.

[9] = test system: colorectal cancer cells; experiment: Proliferation of various cancer cells: colorectal cancer; type: cell-based; details: 60 μM peptide; SW620, HCT116, WiDr; FIG. 12
Description: as §1, §2

[10] = test system: ovarian cancer cells; experiment: Proliferation of various cancer cells: ovarian cancer; type: cell-based; details: 60 μM peptide; SK-OV3; FIG. 12
Description: as §1, §2

[11] = test system: lung cancer cells; experiment: Proliferation of various cancer cells: lung cancer; type: cell-based; details: 60 μM peptide; A549, H1650, H1299; FIG. 12
Description: as §1, §2

[12] = test system: prostate cancer cells; experiment: Proliferation of various cancer cells: prostate cancer; type: cell-based; details: 60 μM peptide; FIG. 12
Description: as §1, §2

With “YGRKKRRQRRRPNQWRYSSPWTKPQP [VGLL1 (S84)]” the “increased MMP9 expression by TGF-β” value [1] was “reduced”, the “inhibition of proliferation of stomach cancer cells” value [2] was “excellent effect in inhibiting the proliferation” and the “inhibition of cancer cell proliferation” value [3] was “exhibited an effect of inhibiting cancer cell proliferation”. For the same sequence, the “inhibition of proliferation of cervical cancer cells” value [4] was “excellent effect in inhibiting the proliferation”, the “inhibition of proliferation of liver cancer cells” value [5] was “excellent effect in inhibiting the proliferation” and the “inhibition of cancer cell proliferation” value [6] was “excellent effect in inhibiting cancer cell proliferation”. For the same sequence, the “inhibition of proliferation of breast cancer cells” value [7] was “excellent effect in inhibiting the proliferation”, the “inhibition of cancer cell invasion” value [8] was “exhibited an effect of inhibiting cancer cell invasion” and the “inhibition of proliferation of colorectal cancer cells” value [9] was “excellent effect in inhibiting the proliferation”. For the same sequence, the “inhibition of proliferation of ovarian cancer cells” value [10] was “excellent effect in inhibiting the proliferation”, the “inhibition of proliferation of lung cancer cells” value [11] was “excellent effect in inhibiting the proliferation” and the “inhibition of proliferation of prostate cancer cells” value [12] was “excellent effect in inhibiting the proliferation”.
